Where a SMILES comes first, the peptide text is derived from it. [ ]: non-standard residue; d: D form. The star is where a group is joined. Dolaproine = CO[C@@H]([C@@H]1CCCN1)[C@@H](C)C(=O)O; Dil = CC[C@H](C)[C@H](NC)[C@@H](CC(=O)O)OC; NMe2Val = CC(C)[C@@H](C(=O)*)N(C)C
Key:
[1] = test system: HCT116 human colorectal cancer cells; assay: Tumorigenicity assay, HCT116 xenografts in nude mice; type: in vivo; details: for Effect with C. novyi-NT / Effect alone: nude mice; for Effect alone: agent alone
Excerpt: (§1) All animal protocols were designed in accordance with the Guide for the Care and Use of Laboratory Animals (NIH Publication 86-23) and were approved by the Johns Hopkins University Institutional Animal Care and Use Committee. Six to eight week old mice were implanted subcutaneously on one flank with 3 to 6 million cancer cells. Establishment of tumors of 150 to 500 mm3 took 8 to 21 days, depending on the cell type. C. novyi-NT spores (300×106) and anti-microtubule agents were generally administered by a single intravenous injection through the tail vein in a total volume of 300 to 500 ul phosphate-buffered saline (PBS). Quantitative assessment of tumor growth was performed by measuring subcutaneous tumor grafts (major and minor axis) using electronic calipers. Tumor volume was calculated using the equation: length×width2×0.5. Progression free survival was defined as the length of time following treatment before any increase in tumor volume was observed. Mice were considered “cured” if no tumor was evident three months after treatment. Animals were weighed at least twice a week and carefully observed for signs of toxicity every day for the first week following treatment and then twice a week thereafter. At least five mice were used for each treatment arm described in the Experimental Results.
The timing, route, and dose of agents are critical for the success of any experimental therapy. When two agents are combined, the number of variables that must be tested increases exponentially. To simplify interpretation of the comparisons between various anti-microtubule agents, pilot studies with representative drugs were performed.
Eighteen agents known to interact with microtubules were each tested in this manner in nude mice harboring xenografts of HCT116 human colorectal cancer cells. At least five mice harboring tumors of 150 to 500 mm3 in size were used for each experimental arm. Two classes of responses were noted. One type of response was characterized by a rapid hemorrhagic necrosis, observed only with agents that inhibited microtubule […] (FIG. 1A, B). The other type of response was characterized by a slow regression, observed with agents that stabilized microtubules (FIG. 2A, B).

[2] = test system: HCT116, HuCC-T1, HT-29, SW480, B16 and DLD-1 tumors; assay: Low dose HTI-286 and L-NNA on various xenografts (FIG. 10); type: in vivo, mice; details: HTI-286 1 mg/kg without L-NNA; L-NNA 10 mg/kg without HTI-286
Excerpt: FIG. 10A-10F Quantification of the effects of C. novyi-NT plus low doses of HTI-286 and L-NNA on various xenografts (HCT116, HuCC-T1, HT-29, SW480, B16, and DLD-1, respectively).
[…] […] The p-values are based on comparisons between L-NNA+HTI-286 and L-NNA+HTI-286+C. novyi-NT spores. The p-value is indicated only when the result was statistically significant.
All animal protocols were designed in accordance with the Guide for the Care and Use of Laboratory Animals (NIH Publication 86-23) and were approved by the Johns Hopkins University Institutional Animal Care and Use Committee. Six to eight week old mice were implanted subcutaneously on one flank with 3 to 6 million cancer cells. Establishment of tumors of 150 to 500 mm3 took 8 to 21 days, depending on the cell type. C. novyi-NT spores (300×106) and anti-microtubule agents were generally administered by a single intravenous injection through the tail vein in a total volume of 300 to 500 ul phosphate-buffered saline (PBS). Quantitative assessment of tumor growth was performed by measuring subcutaneous tumor grafts (major and minor axis) using electronic calipers. Tumor volume was calculated using the equation: length×width2×0.5. Progression free survival was defined as the length of time following treatment before any increase in tumor volume was observed. Mice were considered “cured” if no tumor was evident three months after treatment. […]

[3] = Mortality following COBALT; type: in vivo, nude mice; details: deaths within one week, pooled xenograft models
Excerpt: as §1
(§2) This toxicity was observed only when the combination of C. novyi-NT spores and the drugs was administered and not with either the bacteria or the drugs alone. […] Though major tumor regressions were common, few mice died as a result of therapy (Table 2) No deaths occurred after treatment with the microtubule stabilizers plus C. novyi-NT, while 4% to 8% of mice treated with microtubule destabilizers plus C. novyi-NT died. The only other toxicity observed was transient weight loss (Table 3). Mice treated with the drugs alone lost ˜5 to 10% of their body weight within 7 days, while weight loss after treatment with C. novyi-NT plus these drugs varied from 8% to 18%. All weights recovered to pre-treatment levels within two weeks.

[4] = Weight loss after COBALT; type: in vivo, nude mice; details: drug dose 24.0 mg/kg; maximum average weight loss relative to weight one day prior to treatment; HCT116 xenografts
Excerpt: as §1, §2

[5] = 15 mg/kg × 1 (iv) with 3×108 C. novyi-NT spores iv
[6] = 5 mg/kg × 1 (ip) with 3×108 C. novyi-NT spores iv
[7] = 10 mg/kg × 1 (ip) with 3×108 C. novyi-NT spores iv
[8] = 20 mg/kg × 1 (iv) with 3×108 C. novyi-NT spores iv

Molecule: C=CC=CC(C)C(OC(N)=O)C(C)C(O)C(C)CC=CC(C)C(O)C(C)C=CC(O)CC1OC(=O)C(C)C(O)C1C (single isomer, unassigned; (+)) [(+)-14-normethyldiscodermolide]
- Effect with C. novyi-NT [1, 5]: +
- Effect alone ([1]; 15 mg/kg × 1 (iv)): +

Molecule: O=C(Nc1ccncc1)C(=O)c1cn(Cc2ccc(Cl)cc2)c2ccccc12 [D-24851]
- Effect with C. novyi-NT ([1]; 25 mg/kg × 1 (ip) with 3×108 C. novyi-NT spores iv): +
- Effect with C. novyi-NT ([1]; 100 mg/kg × 1 (ip) with 3×108 C. novyi-NT spores iv): +
- Effect alone ([1]; 25 mg/kg × 1 (ip)): 0
- Effect alone ([1]; 100 mg/kg × 1 (ip)): 0

Molecule: NC(=NCCC[C@H](N)C(=O)O)N[N+](=O)[O-] [L-NNA]
- effect of L-NNA added to C. novyi-NT alone or high doses of HTI-286 plus C. novyi-NT [1]: added little
- effect of L-NNA on responses to low doses of HTI-286 ([1]; L-NNA 10 mg/kg): significantly enhanced
- effects on tumor growth when administered without the other agent [2]: no significant effects on tumor growth

Molecule: CC[C@H](C)[C@@H]([C@@H](CC(=O)N1CCC[C@H]1[C@H](OC)[C@@H](C)C(=O)NCCc1ccccc1)OC)N(C)C(=O)[C@@H](NC(=O)[C@H](C(C)C)N(C)C)C(C)C [auristatin PE]
- Effect with C. novyi-NT ([1]; 2 (2.0) mg/kg × 1 (iv) with 3×108 C. novyi-NT spores iv): +
- Effect alone ([1]; 2 (2.0) mg/kg × 1 (iv)): 0

Molecule: CC[C@H](C)[C@@H]([C@@H](CC(=O)N1CCC[C@H]1[C@H](OC)[C@@H](C)C(=O)N[C@@H](Cc1ccccc1)C(=O)OC)OC)N(C)C(=O)[C@@H](NC(=O)[C@H](C(C)C)N(C)C)C(C)C [auristatin PHE] (NMe2Val-V[Dil][Dolaproine]F-OMe)
- Effect with C. novyi-NT ([1]; 0.2 mg/kg × 1 (iv) with 3×108 C. novyi-NT spores iv): +
- Effect alone ([1]; 0.2 mg/kg × 1 (iv)): 0

Molecule: COc1cc2c(c(OC)c1OC)-c1ccc(OC)c(=O)cc1[C@@H](NC(C)=O)CC2 [colchicine]
- Effect with C. novyi-NT [1, 6]: +
- Effect with C. novyi-NT [1, 7]: +
- Effect with C. novyi-NT ([1]; 20 mg/kg × 1 (ip) with 3×108 C. novyi-NT spores iv): ++ (10% to 50% shrinkage in tumor volume relative to pre-treatment size)
- Effect alone ([1]; 5 mg/kg × 1 (ip)): +
- Effect alone ([1]; 10 mg/kg × 1 (ip)): +
- Effect alone ([1]; 20 mg/kg × 1 (ip)): ++ (10% to 50% shrinkage in tumor volume relative to pre-treatment size)

Molecule: COc1ccc(/C=C\c2cc(OC)c(OC)c(OC)c2)cc1OP(=O)(O)O [combretastatin A4P]
- Effect with C. novyi-NT ([1]; 50 mg/kg × 1 (ip) with 3×108 C. novyi-NT spores iv): +
- Effect with C. novyi-NT ([1]; 200 mg/kg × 1 (ip) with 3×108 C. novyi-NT spores iv): +
- Effect alone ([1]; 50 mg/kg × 1 (ip)): 0
- Effect alone ([1]; 200 mg/kg × 1 (ip)): +

Molecule: C=C/C=C\[C@H](C)[C@H](OC(N)=O)[C@@H](C)[C@H](O)[C@@H](C)C/C(C)=C\[C@H](C)[C@@H](O)[C@@H](C)/C=C\[C@@H](O)C[C@@H]1OC(=O)[C@H](C)[C@@H](O)[C@H]1C [discodermolide]
- Effect with C. novyi-NT [1, 5]: ++++ (>20% cures)
- Effect with C. novyi-NT [1, 8]: ++++ (>20% cures)
- Effect alone ([1]; 15 mg/kg × 1 (iv)): ++ (10% to 50% shrinkage in tumor volume relative to pre-treatment size)
- Effect alone ([1]; 20 mg/kg × 1 (iv)): ++ (10% to 50% shrinkage in tumor volume relative to pre-treatment size)

Molecule: CC[C@H](C)[C@@H]([C@@H](CC(=O)N1CCC[C@H]1[C@H](OC)[C@@H](C)C(=O)N[C@@H](Cc1ccccc1)c1nccs1)OC)N(C)C(=O)[C@@H](NC(=O)[C@H](C(C)C)N(C)C)C(C)C [dolastatin 10]
- Effect with C. novyi-NT ([1]; 0.30 mg/kg × 1 (iv) with 3×108 C. novyi-NT spores iv): +++ (>50% shrinkage in tumor volume relative to pre-treatment size)
- Effect with C. novyi-NT ([1]; 0.45 mg/kg × 1 (iv) with 3×108 C. novyi-NT spores iv): +++ (>50% shrinkage in tumor volume relative to pre-treatment size)
- Effect alone ([1]; 0.30 mg/kg × 1 (iv)): 0
- Effect alone ([1]; 0.45 mg/kg × 1 (iv)): 0

Molecule: C/C(=C\c1csc(C)n1)[C@@H]1C[C@@H]2O[C@]2(C)CCC[C@H](C)[C@H](O)[C@@H](C)C(=O)C(C)(C)[C@@H](O)CC(=O)O1 [epothilone B]
- Effect with C. novyi-NT ([1]; 25 mg/kg QD × 4 (ip) with 3×108 C. novyi-NT spores): +

Molecule: COc1ccc2c(c1OC)C(=O)O[C@@H]2[C@H]1c2c(cc3c(c2OC)OCO3)CCN1C [noscapine]
- Effect with C. novyi-NT ([1]; 50 mg/kg × 1 (iv) with 3×108 C. novyi-NT spores iv): +
- Effect with C. novyi-NT ([1]; 70 mg/kg × 1 (iv) with 3×108 C. novyi-NT spores iv): +
- Effect alone ([1]; 50 mg/kg × 1 (iv)): 0
- Effect alone ([1]; 70 mg/kg × 1 (iv)): 0

Molecule: CC(=O)O[C@H]1C(=O)[C@@]2(C)[C@H]([C@H](OC(=O)c3ccccc3)[C@]3(O)C[C@H](OC(=O)[C@H](O)[C@@H](NC(=O)c4ccccc4)c4ccccc4)C(C)=C1C3(C)C)[C@]1(OC(C)=O)CO[C@@H]1C[C@@H]2O [paclitaxel]
- Effect with C. novyi-NT [1, 5]: 0
- Effect with C. novyi-NT ([1]; 30 mg/kg × 1 (iv) with 3×108 C. novyi-NT spores iv): +
- Effect alone ([1]; 15 mg/kg × 1 (iv)): 0
- Effect alone ([1]; 30 mg/kg × 1 (iv)): 0

Molecule: CC[C@]1(O)C[C@@H]2CN(CCc3c([nH]c4ccccc34)[C@@](C(=O)OC)(c3cc4c(cc3OC)N(C)[C@H]3[C@@](O)(C(=O)OC)[C@H](OC(C)=O)[C@]5(CC)C=CCN6CC[C@]43[C@@H]65)C2)C1 [vinblastine]
- Effect with C. novyi-NT [1, 6]: 0
- Effect with C. novyi-NT [1, 7]: +
- Effect alone ([1]; 5 mg/kg × 1 (ip)): 0
- Effect alone ([1]; 10 mg/kg × 1 (ip)): +

Molecule: CC[C@]1(O)C[C@H]2CN(CCc3c([nH]c4ccccc34)[C@@](C(=O)OC)(c3cc4c(cc3OC)N(C=O)[C@H]3[C@@](O)(C(=O)OC)[C@H](OC(C)=O)[C@]5(CC)C=CCN6CC[C@]43[C@@H]65)C2)C1 [vincristine]
- Effect with C. novyi-NT [1, 6]: 0
- Effect with C. novyi-NT [1, 7]: +
- Effect alone ([1]; 5 mg/kg × 1 (ip)): 0
- Effect alone ([1]; 10 mg/kg × 1 (ip)): 0

Molecule: CCC1=C[C@@H]2CN(C1)Cc1c([nH]c3ccccc13)[C@@](C(=O)OC)(c1cc3c(cc1OC)N(C)[C@H]1[C@@](O)(C(=O)OC)[C@H](OC(C)=O)[C@]4(CC)C=CCN5CC[C@]31[C@@H]54)C2 [vinorelbine]
- # dead (treatment-related deaths) ([3]; drug dose 16.0 mg/kg): 0
- # dead (treatment-related deaths) ([3]; drug dose 20.0 mg/kg): 0
- # dead (treatment-related deaths) ([3]; drug dose 24.0 mg/kg): 0
- Effect with C. novyi-NT ([1]; 16 mg/kg × 1 (iv) with 3×108 C. novyi-NT spores iv): ++ (10% to 50% shrinkage in tumor volume relative to pre-treatment size)
- Effect with C. novyi-NT [1, 8]: +++ (>50% shrinkage in tumor volume relative to pre-treatment size)
- Effect with C. novyi-NT ([1]; 24 mg/kg × 1 (iv) with 3×108 C. novyi-NT spores iv): +++ (>50% shrinkage in tumor volume relative to pre-treatment size)
- Effect alone ([1]; 16 mg/kg × 1 (iv)): +
- Effect alone ([1]; 20 mg/kg × 1 (iv)): +
- Effect alone ([1]; 24 mg/kg × 1 (iv)): +
- Weight Loss (%) [4]: 8.3%

Molecule: arsenic trioxide
- Effect with C. novyi-NT [1, 7]: +
- Effect alone ([1]; 10 mg/kg × 1 (ip)): 0
